From patent US20250340560A1, “SUBSTITUTED PYRAZOLO[1,5-a]PYRIMIDINES AS BRUTON'S TYROSINE KINASE MODULATORS” (BEIGENE SWITZERLAND GMBH, priority 2013, published 2025)
Structures can show the parent of a compound that is named as a salt. Where two headings read alike, the source gives them in different places.

Assays:
[1] = target: phosphorylated Btk at Tyr223 in Ramos cells (Homo sapiens (Human), UniProt Q06187); assay: BTK pY223 cellular assay (HTRF) in Ramos cells; assay type: cell-based; details: 1 hour compound incubation, pervanadate or Na3VO4 stimulation
Sequence of phosphorylated Btk at Tyr223 in Ramos cells (Q06187 whole entry): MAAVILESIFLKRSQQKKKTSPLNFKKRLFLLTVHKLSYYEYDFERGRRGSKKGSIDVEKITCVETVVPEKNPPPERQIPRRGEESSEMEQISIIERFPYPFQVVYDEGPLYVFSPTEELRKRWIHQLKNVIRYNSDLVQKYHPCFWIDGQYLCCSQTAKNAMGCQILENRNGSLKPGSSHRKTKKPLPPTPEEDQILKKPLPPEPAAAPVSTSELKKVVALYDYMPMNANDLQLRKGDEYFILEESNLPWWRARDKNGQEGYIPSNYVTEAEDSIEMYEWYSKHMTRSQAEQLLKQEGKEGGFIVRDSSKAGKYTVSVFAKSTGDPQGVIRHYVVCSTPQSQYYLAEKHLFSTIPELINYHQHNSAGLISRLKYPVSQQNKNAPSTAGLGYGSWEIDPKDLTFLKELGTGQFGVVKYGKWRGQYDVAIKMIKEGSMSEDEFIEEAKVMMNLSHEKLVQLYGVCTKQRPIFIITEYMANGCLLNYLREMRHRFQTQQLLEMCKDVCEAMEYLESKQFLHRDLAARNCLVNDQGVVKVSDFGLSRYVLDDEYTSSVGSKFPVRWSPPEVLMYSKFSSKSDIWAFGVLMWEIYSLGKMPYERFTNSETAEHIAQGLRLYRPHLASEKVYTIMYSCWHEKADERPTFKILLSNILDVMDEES
Procedure: Btk pY223 cellular assay is a HTRF based assay intended to determine the endogenous levels of phosphorylated Btk at Tyr223.
Briefly, Ramos cells were serum starved in 0.5% FBS-containing RPMI1640 for 2 hours. Following starvation, the cells were incubated with compounds to be detected at various concentrations in a CO2 incubator for 1 hour. After incubation, cells were stimulated with 1 mM pervanadate (PV) or Na3VO4 (OV) for 20 min. Then, the cells were spinned down and lysed with 1× lysis buffer at RT for 10 min (4× lysis buffer supplied in the kit). During the incubation, 1× antibody mix was prepared by diluting anti-Btk-d2 and anti-pBtk-K in detection buffer (supplied in the kit). […] After that, 18 ul of cell lysate was transferred to the assay plate pre-loaded with antibody solution. After mixing gently and spinning briefly, the plate was sealed up and kept in dark at RT for 18 hours. […] IC50 values were calculated with GraphPad Prism software using the sigmoidal dose-response function.

[2] = target: Recombinant Btk (Homo sapiens (Human), UniProt Q06187); assay: BTK kinase assay (TR-FRET); details: 1 hour pre-incubation, ATP at Km
Sequence of Recombinant Btk (Q06187 whole entry): as above

| SMILES | IC50 [1] | IC50 ([2]; IC50 (nM) Btk) | IC50 ([2]; read-out: IC50 (nM) Btk) |
| --- | --- | --- | --- |
| C=CC(=O)Nc1ccccc1C1CCNc2c(C(N)=O)c(-c3ccc(OCc4ccccc4)cc3)nn21 (single isomer, unassigned) [Compound 10a] | 2.2 nM | 0.51 nM | – |
| C=CC(=O)N1CC[C@@H]2C(CNc3c(C(N)=O)c(-c4ccc(Oc5ccccc5)cc4)nn32)C1 (single isomer, unassigned) [Compound 30a] | 5.6 nM | – | 0.66 nM |
| NC(=O)c1c(-c2ccc(Oc3ccccc3)cc2)nn2c1NCCC2c1ccncc1 (stereo not shown) [Compound 100, 2-(4-phenoxyphenyl)-7-(pyridin-4-yl)-4,5,6,7-tetrahydropyrazolo[1,5-a]pyrimidine-3-carboxamide] | – | – | 260 nM |
| C=CC(=O)N1CC(C2CCNc3c(C(N)=O)c(-c4ccc(Oc5ccccc5)c(OC)c4)nn32)C1 (stereo not shown) [Compound 140, 7-(1-acryloylazetidin-3-yl)-2-(3-methoxy-4-phenoxyphenyl)-4,5,6,7-tetrahydropyrazolo[1,5-a]pyrimidine-3-carboxamide formate] | – | – | 3000 nM |
| N#CCC(=O)N1CCc2[nH]c3c(C(N)=O)c(-c4ccc(Oc5ccccc5)cc4)nn3c2C1 [Compound 56, 7-(2-Cyanoacetyl)-2-(4-phenoxyphenyl)-5,6,7,8-tetrahydro-4H-pyrazolo[5′,1′:2,3]imidazo[4,5-c]pyridine-3-carboxamide] | – | – | 110 nM |
